Reference: BindingDB's records for doi:10.1016/j.bmcl.2003.10.011 (University of Hamburg, 2003)

Target: Alpha-galactosidase (Aspergillus niger)
Test: Compound tested for inhibition of alpha-galactosidase from Aspergillus niger

SMILES	Ki [µM]
C[C@@H](OC[C@H]1O[C@@H](O)[C@H](O)[C@H](O)[C@@H]1O)[C@H](N)C(=O)O [2-(R)-Amino-3-(3,4,5,6-tetrahydroxy-tetrahydro-pyran-2-ylmethoxy)-butyric acid]	300
N[C@@H](COC[C@H]1O[C@@H](O)[C@H](O)[C@H](O)[C@@H]1O)C(=O)O [2-Amino-3-(3,4,5,6-tetrahydroxy-tetrahydro-pyran-2-ylmethoxy)-propionic acid]	400
